Measurements from ChEMBL document CHEMBL4513141, “CO-ADD screening of NIH (USA) - Clinical Collection” (2021).
In brackets after ≈: the same amount, converted by molar mass. Structures can show the parent of a compound that is named as a salt.

Columns and labels:
[1] = tested on: Pseudomonas aeruginosa; assay: microbe, parasite or virus in culture; conditions: ATCC 27853, 18 h, ASSAY_TEST Inhibition of Bacterial Growth, detection method Absorption (OD600), MEDIA CAMHB, plate type 384well, NBS, CORNING #3640
Description: Antibacterial activity against Pseudomonas aeruginosa ATCC 27853 (CO-ADD:GN_042); MIC in CAMBH media using NBS plates, by OD(600)

[2] = tested on: Staphylococcus aureus; assay: microbe, parasite or virus in culture; conditions: ATCC 43300, 18 h, ASSAY_TEST Inhibition of Bacterial Growth, detection method Absorption (OD600), MEDIA CAMHB, plate type 384well, NBS, CORNING #3640
Description: Antibacterial activity against Staphylococcus aureus MRSA ATCC 43300 (CO-ADD:GP_020); MIC in CAMBH media, using NBS plates, by OD(600)

[3] = tested on: Escherichia coli; assay: microbe, parasite or virus in culture; conditions: ATCC 25922, 18 h, ASSAY_TEST Inhibition of Bacterial Growth, detection method Absorption (OD600), MEDIA CAMHB, plate type 384well, NBS, CORNING #3640
Description: Antibacterial activity against Escherichia coli ATCC 25922 (CO-ADD:GN_001); MIC in CAMBH media using NBS plates, by OD(600)

[4] = tested on: HEK293; assay: cells; format: functional, Homo sapiens, ATCC CRL1573; conditions: Homo sapiens, ATCC CRL1573, HEK293; ASSAY_TEST Inhibition of Cell Viability; detection method Resazurin; Fluorescence (ex560/em590); MEDIA DMEM with 10% FBS; plate type 384well; TC; CORNING #3712; time 18 hr
[5] = tested on: Klebsiella pneumoniae; assay: microbe, parasite or virus in culture; conditions: ATCC 700603, 18 h, ASSAY_TEST Inhibition of Bacterial Growth, detection method Absorption (OD600), MEDIA CAMHB, plate type 384well, NBS, CORNING #3640
Description: Antibacterial activity against Klebsiella pneumoniae MDR ATCC 70063 (CO-ADD:GN_003); MIC in CAMBH media using NBS plates, by OD(600)

[6] = tested on: Acinetobacter baumannii; assay: microbe, parasite or virus in culture; conditions: ATCC 19606, 18 h, ASSAY_TEST Inhibition of Bacterial Growth, detection method Absorption (OD600), MEDIA CAMHB, plate type 384well, NBS, CORNING #3640
Description: Antibacterial activity against Acinetobacter baumannii ATCC 19606 (CO-ADD:GN_034); MIC in CAMBH media using NBS plates, by OD600

[7] = tested on: Candida albicans; assay: microbe, parasite or virus in culture; conditions: ATCC 90028, ASSAY_TEST Inhibition of Fungal Growth, detection method Absorption (OD530), plate type 384well, NBS, CORNING #3640
Description: Antifungal activity against Candida albicans ATCC 90028 (CO-ADD:FG_001); MIC in YNB media using NBS plates, by OD630

[8] = tested on: Cryptococcus neoformans
Description: Antifungal activity against Cryptococcus neoformans H99 ATCC 208821 (CO-ADD:FG_002); MIC in YNB media using NBS plates, by Resazurin OD(600-570)

SMILES	MIC [1]	MIC [2]	MIC [3]	CC50 [4]	MIC [5]	MIC [6]	MIC [7]	MIC [8]
CCn1cc(C(=O)O)c(=O)c2cc(F)c(N3CCN(C)CC3)cc21 [PEFLOXACIN MESYLATE]	1.25 µM	1.25 µM	0.156 µM	> 10 µM	5 µM	10 µM	> 10 µM	> 10 µM
CC1(C)SC2C(NC(=O)C(N)c3ccccc3)C(=O)N2C1C(=O)O (stereo not given)	> 10 µM	> 10 µM	> 10 µM	> 10 µM	> 10 µM	> 10 µM	> 10 µM	> 10 µM
CN1CCN(c2c(F)cc3c(=O)c(C(=O)O)cn4c3c2SCC4)CC1	10 µM (≈ 3.63 µg/mL)	2.5 µM (≈ 0.909 µg/mL)	1.25 µM (≈ 0.454 µg/mL)	> 10 µM	> 10 µM	> 10 µM	> 10 µM	> 10 µM
COC1=C(OC)C(=O)C(CCCCCCCCCCO)=C(C)C1=O [IDEBENONE]	> 10 µM	> 10 µM	> 10 µM	> 10 µM	> 10 µM	> 10 µM	> 10 µM	> 10 µM
CC[C@H]1OC(=O)[C@H](C)[C@@H](O[C@H]2C[C@@](C)(OC)[C@@H](O)[C@H](C)O2)[C@H](C)[C@@H](O[C@@H]2O[C@H](C)C[C@H](N(C)C)[C@H]2O)[C@](C)(OC)C[C@@H](C)C(=O)[C@H](C)[C@@H](O)[C@]1(C)O [CLARITHROMYCIN]	10 µM (≈ 7.48 µg/mL)	> 10 µM	> 10 µM	> 10 µM	> 10 µM	> 10 µM	> 10 µM	> 10 µM
Cc1onc(-c2c(Cl)cccc2Cl)c1C(=O)N[C@@H]1C(=O)N2[C@@H]1SC(C)(C)[C@@H]2C(=O)O	> 10 µM	0.625 µM (≈ 0.294 µg/mL)	> 10 µM	> 10 µM	> 10 µM	> 10 µM	> 10 µM	> 10 µM
C[C@H]1O[C@H](O[C@H]2[C@H](O)[C@@H](O)[C@@H](O[C@H]3[C@H](O)[C@@H](O)C(O)O[C@@H]3CO)O[C@@H]2CO)[C@H](O)[C@@H](O)[C@@H]1N[C@H]1C=C(CO)[C@@H](O)[C@H](O)[C@H]1O (stereo not given in full) [ACARBOSE]	> 10 µM	> 10 µM	> 10 µM	> 10 µM	> 10 µM	> 10 µM	> 10 µM	> 10 µM
COc1cc(Cc2cnc(N)nc2N)cc(OC)c1OC [TRIMETHOPRIM]	> 10 µM	5 µM (≈ 1.45 µg/mL)	1.25 µM (≈ 0.363 µg/mL)	> 10 µM	10 µM (≈ 2.9 µg/mL)	> 10 µM	> 10 µM	> 10 µM
CCN1CCN(c2cc3c(cc2F)c(=O)c(C(=O)O)cn3C2CC2)CC1 [ENROFLOXACIN]	0.312 µM (≈ 0.112 µg/mL)	0.312 µM (≈ 0.112 µg/mL)	≤ 0.0781 µM	> 10 µM	2.5 µM (≈ 0.899 µg/mL)	5 µM (≈ 1.8 µg/mL)	> 10 µM	> 10 µM
CCc1oc2ccccc2c1C(=O)c1cc(Br)c(O)c(Br)c1 [BENZBROMARONE]	> 10 µM	> 10 µM	> 10 µM	> 10 µM	> 10 µM	> 10 µM	> 10 µM	> 10 µM
COc1c(N2CCNC(C)C2)c(F)cc2c(=O)c(C(=O)O)cn(C3CC3)c12 (stereo not given) [GATIFLOXACIN]	0.625 µM (≈ 0.235 µg/mL)	0.312 µM (≈ 0.117 µg/mL)	≤ 0.0781 µM	> 10 µM	2.5 µM (≈ 0.939 µg/mL)	1.25 µM (≈ 0.469 µg/mL)	> 10 µM	> 10 µM
CC1c2cccc(O)c2C(=O)C2=C(O)C3(O)C(O)=C(C(N)=O)C(=O)C(N(C)C)C3C(O)C21 (stereo not given)	0.312 µM (≈ 0.139 µg/mL)	0.625 µM (≈ 0.278 µg/mL)	1.25 µM (≈ 0.556 µg/mL)	> 10 µM	> 10 µM	> 10 µM	> 10 µM	> 10 µM
O=C1CN(/N=C/c2ccc([N+](=O)[O-])o2)C(=O)N1 [NITROFURANTOIN]	> 10 µM	> 10 µM	> 10 µM	> 10 µM	> 10 µM	> 10 µM	> 10 µM	> 10 µM
CC1(C)SC2C(NC(=O)COc3ccccc3)C(=O)N2C1C(=O)O (stereo not given)	> 10 µM	> 10 µM	> 10 µM	> 10 µM	> 10 µM	> 10 µM	> 10 µM	> 10 µM
CCC(C)n1ncn(-c2ccc(N3CCN(c4ccc(OCC5COC(Cn6cncn6)(c6ccc(Cl)cc6Cl)O5)cc4)CC3)cc2)c1=O (stereo not given) [ITRACONAZOLE]	> 10 µM	> 10 µM	> 10 µM	> 10 µM	> 10 µM	> 10 µM	≤ 0.0781 µM	0.156 µM (≈ 0.11 µg/mL)
Cc1nnc(SCC2=C(C(=O)O)N3C(=O)C(NC(=O)Cn4cnnn4)C3SC2)s1 (stereo not given)	> 10 µM	> 10 µM	> 10 µM	> 10 µM	> 10 µM	> 10 µM	> 10 µM	> 10 µM
CO[C@@]1(NC(=O)Cc2cccs2)C(=O)N2C(C(=O)O)=C(COC(N)=O)CS[C@@H]21 [CEFOXITIN SODIUM]	> 10 µM	> 10 µM	10 µM	> 10 µM	> 10 µM	> 10 µM	> 10 µM	> 10 µM
O=c1[nH]c(=O)n(C2CC(O)C(CO)O2)cc1F (stereo not given)	> 10 µM	≤ 0.0781 µM	10 µM (≈ 2.46 µg/mL)	2.37 µM	5 µM (≈ 1.23 µg/mL)	> 10 µM	> 10 µM	> 10 µM
C[C@H]1COc2c(C3(N)CC3)c(F)cc3c(=O)c(C(=O)O)cn1c23 [PAZUFLOXACIN]	1.25 µM (≈ 0.398 µg/mL)	0.625 µM (≈ 0.199 µg/mL)	≤ 0.0781 µM	> 10 µM	1.25 µM (≈ 0.398 µg/mL)	2.5 µM (≈ 0.796 µg/mL)	> 10 µM	> 10 µM
C=CC[C@@H]1C=C(C)C[C@H](C)C[C@H](OC)[C@H]2O[C@@](O)(C(=O)C(=O)N3CCCC[C@H]3C(=O)O[C@H](/C(C)=C/[C@@H]3CC[C@@H](O)[C@H](OC)C3)[C@H](C)[C@@H](O)CC1=O)[C@H](C)C[C@@H]2OC	> 10 µM	> 10 µM	> 10 µM	> 10 µM	> 10 µM	> 10 µM	> 10 µM	≤ 0.0781 µM
